Like-named read-outs stand apart in the source and are kept apart here.
Tests used:
L929 cells = assay: TNF-induced programmed necrosis of L929 cells (Cell Titer-Glo viability); format: cell-based, mouse; details: Mus musculus
Protocol: (§1) The biological test protocol is adopted to test effects of the compound on TNF-induced programmed necrosis of FADD (Fas-associated death domain)-deficient Jurkat cells and L929 cells.
(§2) Two different stimulation methods were used: treating with tumor necrosis factor (TNFα) alone, or treating with TNFα in combination of mitochondrial-derived cysteine-aspartate activator (SMAC) SM164. Cell viability was determined by measuring chemiluminescence values, thereby assessing the bioactivity of the compounds in inhibiting programmed cell necrosis.
(§3) Method: FADD-deficient Jurkat cells: FADD-deficient Jurkat cells (human peripheral blood leukemia T cell line) were cultured in vitro. After reaching logarithmic growth phase, cells were collected and centrifuged at 1000 rpm for 5 minutes. A supernatant was discarded. A cell concentration was adjusted to 2.5×10^5/mL, and cells were seeded into a 384-well plate at 40 µL per well. In the corresponding wells, 5 µL of SM164 (50 nM) and compounds diluted with cell culture medium were added. After pre-treatment at 37°C for 1 hour, 5 µL of TNFα (50 ng/mL) diluted with cell culture medium was added to each well as a stimulation group, while 5 µL of culture medium was added as a control group. After the plate was incubated in a cell culture incubator (37°C, 5% CO2) for 14 hours, 15 µL of Cell Titer-Glo solution was added to each well. Then, the plate was incubated at room temperature for 30 minutes. Luminescence was measured to assess intracellular ATP levels. Cell viability was set at 100% for unstimulated DMSO control wells. […] The plate was placed in a cell culture incubator (37°C, 5% CO2) and cultured for 12 hours. In the corresponding wells, 5 µL of SM164 (500 nM) and compounds diluted with cell culture medium were added. After pre-treatment at 37°C for 1 hour, 5 µL of TNFα (500 ng/mL) diluted with cell culture medium was added to the wells as a stimulation group, while 5 µL of culture medium was added as a control group. After the plate was incubated in the cell incubator (37°C, 5% CO2) for 14 hours, 15 µL of Cell Titer-Glo solution was added to each well. Then, the plate was incubated at room temperature for 30 minutes, and luminescence was measured to assess intracellular ATP levels. Cell viability was set at 100% for unstimulated DMSO control wells. EC50 values of the compounds were calculated using Prism GraphPad statistical software.

[1] = system: FADD-deficient Jurkat cells; assay: TNF-induced programmed necrosis of FADD-deficient Jurkat cells (Cell Titer-Glo viability); format: cell-based, human; details: Homo sapiens, Jurkat
Protocol: as §1, §2, §3

[2] = L929, stimulation with TNFα + SM164, read-out: EC50 (nM) L929 cells (mouse-derived) TNFα+ SM164
[3] = L929, stimulation with TNFα alone, read-out: EC50 (nM) L929 cells (mouse-derived) TNFα
[4] = stimulation with TNFα + SM164, read-out: EC50 (nM) FADD^-/- Jurkat cells (human-derived) TNFα+ SM164
[5] = stimulation with TNFα alone, read-out: EC50 (nM) FADD^-/- Jurkat cells (human-derived) TNFα
[6] = L929, read-out: EC50 (nM) L929 cells (mouse-derived) TNFα
[7] = read-out: EC50 (nM) FADD^-/- Jurkat cells (human-derived) TNFα

SMILES	EC50 (L929 cells; [2])	EC50 (L929 cells; [3])	EC50 [1, 4]	EC50 [1, 5]	EC50 (L929 cells; [6])	EC50 [1, 7]	further results
CN1C(=O)[C@@H](NC(=O)c2n[nH]c(Cc3ccccc3)n2)COc2ccccc21 [GSK2982772, reference compound]	> 1000 nM	> 1000 nM	4 nM	0.7 nM	–	–	–
C[C@H](NC(=O)c1nnn(C)c1Cc1ccccc1)c1ccc(C#Cc2nccn2C)cc1 [IRCBC-002]	–	–	–	–	55.7 nM	0.392 nM	–
C[C@H](NC(=O)c1nnn(C)c1Cc1ccccc1)c1ccc(C#Cc2ccnn2C)cc1 [IRCBC-003]	–	–	–	–	1.11 nM	0.095 nM	–
C[C@H](NC(=O)c1nnn(C)c1Cc1ccccc1)c1ccc(C#Cc2ccn(C)n2)cc1 [IRCBC-004]	–	–	–	–	0.558 nM	0.019 nM	–
C[C@H](NC(=O)c1nnn(C)c1Cc1ccccc1)c1ccc(C#Cc2cnc[nH]2)cc1 [IRCBC-005]	3.42 nM	2.09 nM	1.12 nM	0.019 nM	–	–	–
C[C@H](NC(=O)c1nnn(C)c1Cc1ccccc1)c1ccc(C#Cc2ncc[nH]2)cc1 [IRCBC-006]	–	–	–	–	81.9 nM	2.03 nM	–
C[C@H](NC(=O)c1nnn(C)c1Cc1ccccc1)c1ccc(C#Cc2nccs2)cc1 [IRCBC-007]	–	–	–	–	0.631 nM	0.072 nM	–
C[C@H](NC(=O)c1nnn(C)c1Cc1ccccc1)c1ccc(C#Cc2ncco2)cc1 [IRCBC-008]	–	–	–	–	1.86 nM	0.055 nM	–
C[C@H](NC(=O)c1nnn(C)c1Cc1ccccc1)c1ccc(C#CC2CCOC2)cc1 (stereo partly drawn) [IRCBC-010]	6.71 nM	3.27 nM	13.4 nM	0.481 nM	–	–	–
C[C@H](NC(=O)c1nnn(C)c1Cc1cccc(Cl)c1)c1ccc(C#Cc2ccccn2)cc1 [IRCBC-016]	–	–	–	–	5.85 nM	1.69 nM	–
C[C@H](NC(=O)c1cnn(C)c1Cc1cc(F)cc(F)c1)c1ccc(C#Cc2ccccn2)cc1 [IRCBC-033]	4.11 nM	0.771 nM	1.57 nM	0.066 nM	–	–	–
COC(C)(C)C#Cc1ccc([C@H](C)NC(=O)c2nnn(C)c2Cc2ccccc2)cc1 [IRCBC-036]	–	–	–	–	13.1 nM	0.222 nM	–
C[C@H](NC(=O)c1nnn(C)c1Cc1ccccc1)c1ccc(C#Cc2cnn(C3CC3)c2)cc1 [IRCBC-041]	–	–	–	–	0.771 nM	0.004 nM	–
C[C@H](NC(=O)c1nnn(C)c1Cc1ccccc1)c1ccc(N2CCN(C)C(=O)C2)cc1 [IRCBC-043]	–	–	5.11 nM	0.683 nM	–	–	EC50 (L929 cells; L929, stimulation with TNFα + SM164, µM, read-out: EC50 L929 cells (mouse-derived) TNFα+ SM164): > 1000 nM; EC50 (L929 cells; L929, stimulation with TNFα alone, µM, read-out: EC50 L929 cells (mouse-derived) TNFα): > 1000 nM
C[C@H](NC(=O)c1nnn(C)c1Cc1ccccc1)c1ccc(C#Cc2ncccn2)cc1 [IRCBC-046]	0.43 nM	0.203 nM	0.087 nM	0.001 nM	–	–	–
C[C@H](NC(=O)c1nnn(C)c1Cc1ccccc1)c1ccc(C#Cc2cnccn2)cc1 [IRCBC-048]	–	–	–	–	2.93 nM	0.018 nM	–
C[C@H](NC(=O)c1nnn(C)c1Cc1ccccc1)c1ccc(C#Cc2ccc(F)cn2)cc1 [IRCBC-049]	–	–	–	–	0.118 nM	0.002 nM	–
C[C@H](NC(=O)c1nnn(C)c1Cc1ccccc1)c1ccc(C#Cc2ccc(Cl)cn2)cc1 [IRCBC-050]	–	–	–	–	0.105 nM	0.001 nM	–
C[C@H](NC(=O)c1nnn(C)c1Cc1ccccc1)c1ccc(C#Cc2ccc(C#N)cn2)cc1 [IRCBC-051]	4.53 nM	1.62 nM	0.845 nM	0.006 nM	–	–	–
COc1ccc(C#Cc2ccc([C@H](C)NC(=O)c3nnn(C)c3Cc3ccccc3)cc2)nc1 [IRCBC-052]	–	–	–	–	0.068 nM	0.001 nM	–
C[C@H](NC(=O)c1nnn(C)c1Cc1ccccc1)c1ccc(C#Cc2ccc(N(C)C)cn2)cc1 [IRCBC-053]	0.011 nM	0.004 nM	0.001 nM	–	–	–	–
C[C@H](NC(=O)c1nnn(C)c1Cc1ccccc1)c1ccc(C#Cc2ccncc2F)cc1 [IRCBC-054]	–	–	–	–	0.103 nM	0.001 nM	–
Cn1nnc(C(=O)NCc2ccc(C#Cc3ccccn3)nc2)c1Cc1ccccc1 [IRCBC-057]	35.5 nM	12.6 nM	3.9 nM	0.537 nM	–	–	–

Reference: patent EP4741379A1, “CLASS OF PROGRAMMED CELL DEATH INHIBITORS, PREPARATION METHOD THEREFOR AND USE THEREOF” (SHANGHAI INSTITUTE OF ORGANIC CHEMISTRY, CHINESE ACADEMY OF …, priority 2023, dated 2025)
